Here are results for one substance from patent US8778626B2, “Clickable cross-linker” (California Institute of Technology, priority 2010, dated 2014).

For data set [1], the target named is T1, Cul1 protein (Homo sapiens, UniProt Q13616).
T1 construct: expressed in transfected cells
Description: in vivo cross-linking of HEK 293 cells followed by Western blot analysis of Cul1. In kind it is cell-based. As to conditions: inferred from cross-linking of cytoplasmic Cul1 in HEK 293 cells. As for the experimental part:
(§1) To test the cell permeability and water solubility of CXL-1, in vivo cross-linking of HEK 293 cells, followed by Western blot analysis of the Cul1 protein were performed. The in vivo cross-linking of HEK 293 cells by CXL-1, followed by Western blot analysis was carried out as described previously with minor modifications (Lee et al., Mol. Cell. Proteomics 2010, Electronic preprint. doi:10.1074/mcp.M110.006460.) Briefly, to facilitate the purification of Cul1, a HEK 293-derived stable cell line capable of expressing tagged Cul1 upon tetracycline treatment was constructed using the T-REx™ (Tetracycline-regulated Expression) system (Invitrogen, Carlsbad, Calif.). The tandem tag used here consists of a hexa-histidine sequence and a biotinylation signal sequence (Tagwerker et al., 2006). Biotinylation is catalyzed by endogenous biotin ligases, which are present in all eukaryotic cells (Cronan J. Biol. Chem. 1990, 265, 10327). A specific lysine residue in the biotinylation signal sequence functions as an acceptor site for biotin in vivo (Kulman et al., Protein Expr. Purif. 2007, 52, 320).
Tagged Cul1 was induced with 1.0 μg/mL tetracycline for 4 hours in experiments for in vivo cross-linking. Twenty four hours after induction, cells were subject to in vivo cross-linking by treating 0, 0.1, 0.2, 0.5, and 1.0 mM of CXL-1, respectively, and incubated for 1 h at 37° C. […]
(In western blotting, separated proteins are transferred to a membrane and probed.)

Data set [2] can be described thus: water solubility of CXL-1 verified by in vivo cross-linking. In kind it is physicochemical. The settings on record: PBS; inferred from in vivo cross-linking of Cul1. As for the experimental part: as §1
Cul1 is a ubiquitin ligase that attaches a ubiquitin chain on target substrates for proteasome-catalyzed degradation (Deshaies, R. J. Annu. Rev. Cell Dev. Biol. 1999, 15, 435). Cul1 is a prototype of the cullin ligase family, and constitutes modular ligase complexes with other binding partners. […]

Data set [3] deals with T2, ubiquitin (Homo sapiens, UniProt P0CG47).
T2 construct: cross-linking of ubiquitin (PDB ID: 1 UBQ)
Description: circular dichroism spectrometry of CXL-1 cross-linked ubiquitin. As to conditions: CD spectra, 0.25 or 1 mM CXL-1, t=0 and t=30 min, 1×PBS pH 7.4 (FIG. 10). As for the experimental part:
The CXL-1 cross-linked ubiquitin samples were analyzed by an Aviv Model 62A DS Circular Dichroism (CD) Spectrometer (Lakewood, N.J.) at room temperature. The critical instrumental parameters included: acquisition range=200 to 300 nm, step size=1.00 nm, averaging time=5 s, bandwidth=1 nm, and path length=1 mm. One scan was recorded for each spectrum. For CXL-1 cross-linked samples, 1 to 4 μL of 50 mM CXL-1 stock solution in DMSO was added to 196 to 199 μL of 0.1 mg/mL ubiquitin in 1×PBS pH 7.4 to yield a final concentration of 0.25 to 1 mM CXL-1 in 200 CD spectra were collected upon addition of CXL-1 (t=0) and after 30 min of cross-linking reaction (t=0.5 h).
Circular dichroism (CD) spectrometry is a useful analytical technique for quick investigation of secondary structure, folding, and binding properties of peptides and proteins (Greenfield, N. J. Nat. Protocols 2007, 1, 2876). […] The CD spectra of native ubiquitin were previously recorded, yielding the secondary structure analysis of 6% α-helix, 10% β-sheet and 84% random structures, which can be observed as increasingly negative ellipticity over the range of 225 to 240 nm (Jenson et al., Biochim. Biophys. Acta 1980, 624, 378, the entire contents of which are herein incorporated by reference). […]
In general terms: CD spectra are sensitive to the conformation of chiral molecules.

Data set [4] deals with HEK 293 cells. Description: cytotoxicity of CXL-1 on cells during in vivo cross-linking. The data set is classed as cell-based. The procedure:
Tagged Cul1 was induced with 1.0 μg/mL tetracycline for 4 hours in experiments for in vivo cross-linking. Twenty four hours after induction, cells were subject to in vivo cross-linking by treating 0, 0.1, 0.2, 0.5, and 1.0 mM of CXL-1, respectively, and incubated for 1 h at 37° C. After the completion of the cross-linking, cells were lysed for 30 minutes at 4° C. with the lysis buffer (0.050 M HEPES, pH 7.5, 0.0050 M Mg(OAc)2, 0.070 M KOAc, 10% glycerol, and 0.4% IGEPAL CA630). The lysate was centrifuged at 16,600 g at 4° C. for 20 min and the supernatant was used for Western blot analysis.
Cul1 is a ubiquitin ligase that attaches a ubiquitin chain on target substrates for proteasome-catalyzed degradation (Deshaies, R. J. Annu. Rev. Cell Dev. Biol. 1999, 15, 435). Cul1 is a prototype of the cullin ligase family, and constitutes modular ligase complexes with other binding partners. […] Secondly, if cytoplasmic Cul1 protein is cross-linked by CXL-1, the postulated cell permeability and water solubility from the design of CXL-1 can be verified. FIG. 11 depicts the Western blot analysis of cross-linked Cul1 samples acquired from in vivo cross-linking of HEK 293 cells. From the observation of the higher molecular weight band, Cul1 is cross-linked by CXL-1 in a range of approximately 0.5 to 1.0 mM. […] Accordingly, CXL-1 is compatible with the cellular environment for in vivo cross-linking.

T1 sequence (Q13616 whole entry): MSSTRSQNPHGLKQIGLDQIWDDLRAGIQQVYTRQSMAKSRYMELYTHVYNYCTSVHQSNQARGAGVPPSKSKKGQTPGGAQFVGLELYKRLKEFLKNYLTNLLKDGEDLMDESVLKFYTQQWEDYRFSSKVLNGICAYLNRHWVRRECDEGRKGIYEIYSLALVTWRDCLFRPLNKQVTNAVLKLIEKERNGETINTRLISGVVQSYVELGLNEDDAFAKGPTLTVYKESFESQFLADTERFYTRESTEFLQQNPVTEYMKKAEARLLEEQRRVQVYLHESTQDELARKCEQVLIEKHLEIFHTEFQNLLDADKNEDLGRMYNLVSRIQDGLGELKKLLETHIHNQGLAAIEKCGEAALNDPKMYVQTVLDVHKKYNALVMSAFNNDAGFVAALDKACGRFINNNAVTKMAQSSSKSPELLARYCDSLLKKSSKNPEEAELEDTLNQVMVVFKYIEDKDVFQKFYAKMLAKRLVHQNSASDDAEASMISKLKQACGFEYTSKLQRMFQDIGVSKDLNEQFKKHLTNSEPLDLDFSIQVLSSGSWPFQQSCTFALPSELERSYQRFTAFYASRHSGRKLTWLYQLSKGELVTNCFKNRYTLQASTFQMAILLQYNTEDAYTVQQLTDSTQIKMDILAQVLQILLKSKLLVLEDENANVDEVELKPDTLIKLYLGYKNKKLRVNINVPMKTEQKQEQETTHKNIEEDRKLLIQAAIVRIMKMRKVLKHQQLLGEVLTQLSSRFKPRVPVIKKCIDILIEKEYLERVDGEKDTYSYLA

On to “NHS-activated 2,2′-(hex-5-ynylazanediyl)diacetic acid [CXL-1]”, for which the cell permeability result in data set [1] is “cell-permeable”. Moreover, the solubility result in data set [2] is reported as “soluble in PBS”. The “contribution of CXL-1 on ubiquitin secondary structure” value in data set [3] is listed as “minimal or undetectable”. Moreover, the “cytotoxic activity on cells” value in data set [4] (CXL-1 in working concentration ranges) is reported as “no or minimal cytotoxic activity”. Besides, in data set [4] (treatment of CXL-1 up to 1 mM, HEK 293 cells, 1 h at 37° C.), the cell toxicity result is on record as “did not induce any significant cell toxicity”.
